Results from US11998610B2, “Conjugates and methods of using the same” (Flagship Pioneering Innovations V, Inc., priority 2018, dated 2024).
Non-standard residues stand in square brackets, D forms with d. Residues, ends and D or L forms follow the SMILES beside them. *: point of attachment. Bz = O=C(c1ccccc1)*

Assays:
CT26.CL25 cells = experiment: Cell viability readout (CellTiter-Glo) with bacteria-free media; format: cell-based, mouse; settings: 72 h
Procedure: Example 100: Cell-Based Assay of Bacterial Enzymes with Mammalian CT26.CL25 Mouse Colorectal Carcinoma Viability Readout
Bacteria-free media was incubated with the indicated test compound. ((R)—N1-(2-(methylamino)ethyl)-2-octanamidosuccinamide, a recognition element-linker conjugate lacking a payload, was serially diluted 1:1000 in DMSO and […] in medium+10% FBS to give a final concentration of 10 nM. Compound 35, Compound 76, Compound 77, Compound 78, Compound 79, and SN-38 were serially diluted 1:1000 in DMSO and 1:1000 in medium to give a final concentration of 10 nM, and then the bacteria-free supernatants were tested for their ability to kill mammalian cells. As an additional control, the test compound will also be incubated with bacteria-free media. The above steps can also be performed in the presence of E. coli (CFT073 ATCC 700928, Nissle 1917, or BL21 (DE3)) to effect cleavage of the conjugates of the application.
On Day 1, CT26.CL25 cells (15,000 cells/well) were seeded in triplicate into a 24 well plate and incubated overnight in 100 μL of complete medium. The reactions (bacteria or media blank) was pelleted by centrifugation, and then the supernatant was passed through a 0.2 μm sterile filter to remove residual bacteria.
On Day 2, 300 μL of a 10 nM solution of each compound in media were applied to separate wells of CT26.CL25 cells as prepared on Day 1. The cells were incubated at 37° C. for 72 h. After this point, viability was assessed using a CellTiter-Glo kit.
Binning of the compounds was achieved by measuring cell growth or arrest (e.g. remaining cells are >90% viable, >80% viable, >70% viable, >60% viable, >50% viable, >40% viable, >30% viable, >20% viable, or >10% viable).

E. coli BL21(DE3) [1] = experiment: Payload release in the presence of fecal matter, ClbP negative E. coli; format: cell-based; settings: 10 μM compound, anaerobic, 37° C., 20 h, LCMS
Text: (§1) This example is representative of the methods described in Example 103. Fecal samples were subjected to metagenomic whole-genome shotgun sequencing followed by querying the dataset for the presence of the clbP gene or by attempting to amplify the gene with primers specific for it by qPCR. Samples that gave a signal below the detection limit were used in subsequent steps. The fecal sample was resuspended as a 15% (w/v) slurry in Anaerobic Phosphate Buffer Saline.
(§2) Following steps 1 and 2 as detailed in Example 98, E. coli CFT073 ATCC 700928, E. coli Nissle 1917, or E. coli BL21(DE3) were grown in liquid culture.
(§3) In an anaerobic chamber, the E. coli strains were added to the fecal samples obtained in step 1 at a dilution level calculated to represent 0, 1, 10, 50, 90, 99, or 100% of all organisms present in PRAS dilution blank on a 200 μL volume. The test compound (10 μM final concentration) was added to the mixture. The test compound was also added to a bacteria-free media control under similar conditions. The plate was sealed and incubated at 37° C. for 20 h. Under similar conditions, a standard curve of both the starting material and the payload compound was made in bacteria-free media.
(§4) After 20 h, an aliquot was tested for breakdown and release of a payload by LCMS by diluting serially to a final dilution of 1:100 first with Acetonitrile (10× dilution) and then with (1:1) Mobile Phase A-0.1% Formic Acid in Water:Mobile Phase B-0.1% Formic acid in Acetonitrile (1 OX dilution), with absolute quantification compared to the external standard curve. In an ideal case, the amount of payload released in the reaction(s) with ClbP-encoding E. coli was >75% of the theoretical maximum, and none was released in the E. coli BL21(DE3) and media-alone conditions. In an acceptable case, the amount of payload released in the reaction(s) with ClbP-encoding E. coli was 25-75% of the theoretical maximum, and <25% of the theoretical maximum was released in the E. coli BL21(DE3) and media-alone conditions. In a non-preferred case, the amount of payload released in the reactions(s) with ClbP-encoding E. coli was <25% of the theoretical maximum, and >25% of the theoretical maximum was released in the E. coli BL21(DE3) and media-alone conditions.

E. coli Nissle 1917 = experiment: Payload release in the presence of fecal matter, ClbP positive E. coli; format: cell-based; settings: 10 μM compound, anaerobic, 37° C., 20 h, LCMS
Text: as §1, §2, §3, §4

[2] = In vitro Colonic Material Stability Assay; format: in vitro ADME; settings: colonic material slurry, anaerobic, 1 or 10 μM, 24 h
Procedure, shortened: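 Compounds were added at 1 or 10 μM final to colonic material slurry (6.7 μL of 15% w/v slurry per 1 mL YCFAC or similar medium). Samples taken at 0–2880 min were acetonitrile-quenched and the remaining compound quantified by LC/MS.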

WT ClbP = experiment: Assay with purified ClbP protein (LCMS); format: biochemical, E. coli; settings: 20 μM WT ClbP, 100 μM compound, room temperature, 24 h
Procedure: This example is representative of the method described in Example 91 the soluble peptidase domain (amino acids 38 to 375) of ClbP or the catalytically inert mutant S95A was cloned into pET28a using previously defined boundaries as a starting point (Brotherton, J. Am. Chem. Soc., 135:3359-3362, 2013).
WT ClbP or S95A ClbP was isolated as an N-terminally tagged HiS6-SUMO1-fusion protein from […] using E. coli BL21(DE3)RIPL to express the protein. The cells were lysed in 30 mM Tris pH 8.0, 300 mM NaCl, 10% (v/v) glycerol, benzonase (Sigma-Millipore), lysozyme, B-per (ThermoFisher), and Y-per (ThermoFisher). The lysate was clarified via centrifugation (13,000 g, 20 min), and the supernatant was incubated with HiBond Ni-NTA agarose (5 mL). The resin was subsequently washed with wash buffer (30 mM Tris pH 7.5, 250 mM NaCl, 10 mM imidazole, 3% (v/v) glycerol, and 2 mM TCEP). The resin was incubated at 30° C. for 1 h with 1.4 mg ULP1 protease. The resin was then washed with an additional fraction of wash buffer. Centrifuge filtration was used to concentrate the protein, and the concentrated protein was subsequently applied to a 16/600 Superdex 200 size exclusion column with an isocratic elution of 25 mM HEPES, 25 mM Tris pH 7.4, 325 mM NaCl, 10 mM KCl and 3% (v/v) glycerol at a flow rate of […]. The fractions containing the protein were determined by SDS-PAGE, combined, and concentrated by centrifuge filtration. 3 mM TCEP was added to the concentrated protein, which was then aliquoted, flash frozen in liquid N2, and stored at −80° C.
This example is representative of the method described in Example D, ClbP was incubated with test compounds in an in vitro assay. In a typical assay, 0, 1, or 20 μM purified WT or S95A ClbP was incubated with 100 or 500 μM compound in reaction buffer (50 mM Tris-HCl pH 7.5, 37.5 mM NaCl) at room temperature for 24 h. The total volume of this reaction was 150 μL.
After 24 h, 2 volumes of acetonitrile (300 μL) were added to the reaction to quench the solution.
The reaction was centrifuged (4,000 g, 15 min), and then the supernatant was analyzed by LCMS. 5 μL of the supernatant was injected onto an Acquity UPLC BEH C18 1.7 μm 2.1×100 column. Buffer A was 0.1% (v/v) formic acid in water and buffer B was 0.1% (v/v) formic acid in acetonitrile. The flow rate was 0.5 mL/min. The initial % B was 10, which was held for 30 s then ramped up to 90% B over 3 min, held at 90% B for 1 min, ramped down to 10% B over 15 s, and then held at 10% B for 15 s. The UV-Vis spectrum from 210-400 nm was monitored with 3.6 nm resolution. Positive and negative mode ESI were monitored from 100-1000 m/z with a 20 V cone voltage at 5 Hz sampling frequency in centroid collection.
The relative starting material remaining in the WT ClbP reaction was determined by LCMS and then compared to the residual starting material in the no-enzyme and catalytically inert enzyme (S95A ClbP) reactions. In an ideal case, the amount of residual starting material in the WT ClbP reaction was <25% of the amount in the S95A ClbP and no-enzyme conditions. In an acceptable case, the amount of residual starting material in the WT ClbP reaction was 25-75% of the amount in the S95A ClbP and no-enzyme conditions. In a non-preferred case, the amount of residual starting material in the WT ClbP reaction was >75% of the amount in the S95A ClbP and no-enzyme conditions.
Formation of the anticipated product was likewise quantified by LCMS analysis and confirmed by coelution with an external product standard. In an ideal case, the amount of product formed in the WT ClbP reaction corresponded to >75% of the theoretical maximum. In an acceptable case, the amount of product formed in the WT ClbP reaction corresponded to 25-75% of the theoretical maximum. In a non-preferred case, the amount of product formed in the WT ClbP reaction corresponded to <25% of the theoretical maximum.

E. coli BL21(DE3) [3] = experiment: Cell-based assay with ClbP with LCMS, ClbP negative strain; settings: 10 μM compound, 37° C., 20 h
Procedure, shortened: (§5)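 Compound (10 μM final) incubated 20 h at 37° C, aerobically, with 1:40-diluted overnight cultures of ClbP-positive E. coli or negative BL21(DE3), in duplicate, alongside uninoculated LB. Remaining parent quantified by LC-MS/MS (MRM) after acetonitrile quench, expressed as percent of media-alone.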

[4] = tested on: E. coli CFT073 ATCC 700928 and/or E. coli Nissle 1917; experiment: Cell-based assay with ClbP with LCMS, ClbP positive strain; settings: for % Remaining in ClbP Positve Relative to Media-Only: ClbP-encoding E. coli, 10 μM compound, 37° C., 20 h; for Difference between the ClbP Positive and ClbP Negative release profiles: conclusion from Table 4
Procedure, shortened: as §5

[5] = 10 nM compound, CT26.CL25 cells, CellTiter-Glo

Row | SMILES | Bacteria-free media (Luminescence, average of three runs) (CT26.CL25 cells; [5]) | % payload released in ClbP negative (BL21 DE3) at 1:1 ratio of E. coli to fecal bacteria (E. coli BL21(DE3) [1]) [%] | % payload released in ClbP positive (Nissle 1917) at 1:1 ratio of E. coli to fecal bacteria (E. coli Nissle 1917) [%] | % Remaining in ClbP Negative Relative to Media-Only (E. coli BL21(DE3) [3]) | % Remaining in ClbP Positve Relative to Media-Only [4] | Difference between the ClbP Positive and ClbP Negative release profiles [4] | further results
1 | CCCCCCCC(=O)N[C@H](CC(N)=O)C(=O)NCCNC [(R)—N1-(2-(methylamino)ethyl)-2-octanamidosuccinamide, reference compound] | – | – | – | – | – | – | Bacteria-free media (Luminescence, average of three runs) (CT26.CL25 cells; 0.01 µM): 278313
2 | CCc1c2c(nc3ccc(O)cc13)-c1cc3c(c(=O)n1C2)COC(=O)[C@]3(O)CC [SN-38, 7-ethyl-10-hydroxy-camptothecin, reference compound] | 121387 | – | – | – | – | – | –
3 | CCCCCCNC(=O)N[C@H](CC(N)=O)C(=O)NCCN(C)C(=O)Oc1ccc2nc3c(c(CC)c2c1)Cn1c-3cc2c(c1=O)COC(=O)[C@]2(O)CC [Example 77, (S)-4,11-diethyl-4-hydroxy-3,14-dioxo-3,4,12,14-tetrahydro-1H-pyrano[3′,4′:6,7]indolizino[1,2-b]quinolin-9-yl (2-((R)-4-amino-2-(3-hexylureido)-4-oxobutanamido)ethyl)(methyl)carbamate] | 345334 | 0 | 0 | – | – | – | –
4 | COC(=O)[C@H](C)NC(=O)[C@@H](CC(N)=O)NC(=O)c1ccccc1 [Example 13, Methyl benzoyl-D-asparaginyl-L-alaninate] (Bz-[dN]-Ala-OMe) | – | – | – | + (between 25-75% compound remaining in the 20 μM WT ClbP reaction relative to the no-enzyme control) | ++ (<25% compound remaining in the 20 μM WT ClbP reaction relative to the control) | particularly favorable difference | Assay 3 (% Remaining at 24 h) [2]: C (>75% of the tested compound remaining); Status (compound remaining in WT ClbP reaction relative to no-enzyme control) (WT ClbP): ++ (<25% compound remaining in the 20 μM WT ClbP reaction relative to the control)
5 | CCCCCCCC(=O)N[C@H](CC(N)=O)C(=O)NCCN(C)C(=O)O[C@]1(CC)C(=O)OCc2c1cc1n(c2=O)Cc2c-1nc1ccc(O)cc1c2CC [Example 79, (S)-4,11-diethyl-9-hydroxy-3,14-dioxo-3,4,12,14-tetrahydro-1H-pyrano[3′,4′:6,7]indolizino[1,2-b]quinolin-4-yl (2-((R)-4-amino-2-octanamido-4-oxobutanamido)ethyl)(methyl)carbamate] | 288245 | 0 | 0 | – | – | – | –
6 | CCCCCCCC(=O)N[C@H](CC(N)=O)C(=O)NCCCC(=O)OCn1cc(F)c(=O)[nH]c1=O [Example 72B, (5-fluoro-2,4-dioxo-3,4-dihydropyrimidin-1(2H)-yl)methyl (R)-4-(4-amino-2-octanamido-4-oxobutanamido)butanoate] | – | 5.4 | 41.1 | − (>75% compound remaining in the 20 μM WT ClbP reaction relative to the no-enzyme control) | ++ (<25% compound remaining in the 20 μM WT ClbP reaction relative to the control) | particularly favorable difference | –
